In patent publication US20220396577A1, “NOVEL SUBSTITUTED 1,3-8-TRIAZASPIRO[4,5] DECANE-2,4-DIONE COMPOUNDS AS INDOLEAMINE 2,3-DIOXYGENASE (IDO) AND/OR TRYPTOPHAN 2,3-DIOXYGENASE (TDO) INHIBITORS” (Merck Sharp & Dohme LLC, priority 2019, published 2022) one finds IC50 data, which are given here for two molecules.

The target in one test is T1, TDO (Homo sapiens, UniProt P48775).
T1 construct: endogenous in cells; host or cells: SW48 cells
Description: TDO Cellular Assay (C), SW48 cells. It is filed as cell-based. The note with it: 48 hours, second value of cell. How it is done: Compounds were serially diluted in DMSO and acoustically dispensed (LabCyte Echo) into each well of a black 384-well cell culture plate (Greiner). SW48 cells were diluted to a density of 2×10^5 cells/ml in complete RPMI culture medium supplemented with […] L-tryptophan and […] SW48 cells were dispensed to each well of 384-well plates with a compound. Plates are gently shaken and then incubated for 48 hours at 37° C. in an incubator with 5% CO2. After incubation, 12 μl of the detection agent (0.5 M isonipecotate in DMSO) was added to each well and incubated at 37° C. overnight. The fluorescent signal was read on a Spectramax plate reader with excitation at 400 nm and emission at 510 nm. The percent inhibition was determined by normalization to wells containing no compound relative to wells receiving no cells.

The target of the next test is CDK5/P25 (Homo sapiens, UniProt Q00535). Description: Off-target kinase panel, ZLYTE: CDK5/P25. It counts as biochemical. The note with it: read-out: Estimated IC50 (uM) CDK5/P25. The text has this: (§1) The activity data was obtained in a panel of 265 and 264 for compounds 1-1 and CC-1, respectively, using the ZLYTE and ADAPTA assay methods indicated in the table below.
CDK5/P25, sequence (Q00535 whole entry): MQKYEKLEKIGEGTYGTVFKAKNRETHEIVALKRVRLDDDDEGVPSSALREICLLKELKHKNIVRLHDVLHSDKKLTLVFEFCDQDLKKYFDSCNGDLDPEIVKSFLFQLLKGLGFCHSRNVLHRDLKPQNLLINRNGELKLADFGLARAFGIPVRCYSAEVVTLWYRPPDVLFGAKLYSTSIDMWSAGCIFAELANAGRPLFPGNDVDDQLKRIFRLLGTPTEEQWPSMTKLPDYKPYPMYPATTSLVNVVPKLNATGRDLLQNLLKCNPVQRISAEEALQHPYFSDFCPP
CDK5/P25, sequence (Q15078 99-307 partner limits assumed): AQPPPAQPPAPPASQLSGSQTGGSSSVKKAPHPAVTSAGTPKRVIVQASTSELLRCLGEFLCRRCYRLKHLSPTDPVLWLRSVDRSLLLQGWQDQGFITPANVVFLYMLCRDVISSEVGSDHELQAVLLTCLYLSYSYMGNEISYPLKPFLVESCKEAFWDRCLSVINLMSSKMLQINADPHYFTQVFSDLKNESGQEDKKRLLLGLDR
(§2) The ZLYTE biochemical assay employs a fluorescence-based, coupled-enzyme format and is based on the differential sensitivity of phosphorylated and non-phosphorylated peptides to proteolytic cleavage. The peptide substrate is labeled with two fluorophores—one at each end—that make up a Fluorescence Resonance Energy Transfer (FRET) pair.
(§3) In the primary reaction, the kinase transfers the gamma-phosphate of ATP to a single tyrosine, serine or threonine residue in a synthetic FRET-peptide. In the secondary reaction, a site-specific protease recognizes and cleaves non-phosphorylated FRET-peptides. Phosphorylation of FRET-peptides suppresses cleavage by the Development Reagent. […] A ratiometric method, which calculates the ratio (the Emission Ratio) of donor emission to acceptor emission after excitation of the donor fluorophore at 400 nm, is used to quantitate reaction progress, as shown in the equation below. […]
(§4) Both cleaved and uncleaved FRET-peptides contribute to the fluorescence signals and therefore to the Emission Ratio. The extent of phosphorylation of the FRET-peptide can be calculated from the Emission Ratio. […]
(§5) 10. Read on fluorescence plate reader and analyze the data.

The target of the next test is CDK2 (Homo sapiens, UniProt P24941). Put plainly: Off-target kinase panel, ZLYTE: CDK2. It counts as biochemical. To be noted: read-out: Estimated IC50 (uM) CDK2.
Source text: as §1, §2, §3, §4, §5

A further test has as its target LRRK2 (G2019S) (Homo sapiens, UniProt Q5S007, G2019S). Put plainly: Off-target kinase panel, ADAPTA: LRRK2 (G2019S). It is filed as biochemical. To be noted: read-out: Estimated IC50 (uM) LRRK2 (G2019S).
Source text: as §1
The Adapta universal kinase assay is a homogenous, fluorescent based immunoassay for the detection of ADP. In contrast to ATP depletion assays, the Adapta assay is highly sensitive to ADP formation such that a majority of the signal change occurs in the first 10-20% conversion of ATP to ADP. This makes the Adapta universal kinase assay well suited for use with low activity kinases.
The principle of the Adapta universal kinase assay is outlined below. The assay itself can be divided into two phases: a kinase reaction phase, and an ADP detection phase. In the kinase reaction phase, all components required for the kinase reaction are added to the well, and the reaction is allowed to incubate for 60 minutes. After the reaction, a detection solution consisting of a europium labeled anti-ADP antibody, an Alexa Fluor 647 labeled ADP tracer, and EDTA (to stop the kinase reaction) is added to the assay well. […]
ADP formation is determined by calculating the emission ratio from the assay well. The emission ratio is calculated by dividing the intensity of the tracer (acceptor) emission by the intensity of the Eu (donor) emission at 615 nm as shown in the equation below. […]
12. Read on fluorescence plate reader and analyze the data.

The next test addresses CDK5/P35 (Homo sapiens, UniProt Q00535). Description: Off-target kinase panel, ZLYTE: CDK5/P35. It is filed as biochemical. The note with it: read-out: Estimated IC50 (uM) CDK5/P35.
Source text: as §1, §2, §3, §4, §5

The structures appear in SMILES notation.

CDK5/P35, sequence (Q00535 whole entry): as the sequence (Q00535 whole entry) above
CDK5/P35, sequence (Q15078 2-307 partner limits assumed): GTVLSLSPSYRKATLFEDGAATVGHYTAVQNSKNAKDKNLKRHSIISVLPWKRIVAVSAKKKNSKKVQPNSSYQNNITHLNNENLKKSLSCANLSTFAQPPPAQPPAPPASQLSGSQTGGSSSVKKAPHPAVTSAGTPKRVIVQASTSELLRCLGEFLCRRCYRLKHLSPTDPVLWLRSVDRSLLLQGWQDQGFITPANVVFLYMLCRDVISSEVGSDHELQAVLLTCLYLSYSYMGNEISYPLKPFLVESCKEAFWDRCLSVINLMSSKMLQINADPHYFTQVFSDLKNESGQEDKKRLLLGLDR
LRRK2 (G2019S), sequence (Q5S007 whole entry G2019S): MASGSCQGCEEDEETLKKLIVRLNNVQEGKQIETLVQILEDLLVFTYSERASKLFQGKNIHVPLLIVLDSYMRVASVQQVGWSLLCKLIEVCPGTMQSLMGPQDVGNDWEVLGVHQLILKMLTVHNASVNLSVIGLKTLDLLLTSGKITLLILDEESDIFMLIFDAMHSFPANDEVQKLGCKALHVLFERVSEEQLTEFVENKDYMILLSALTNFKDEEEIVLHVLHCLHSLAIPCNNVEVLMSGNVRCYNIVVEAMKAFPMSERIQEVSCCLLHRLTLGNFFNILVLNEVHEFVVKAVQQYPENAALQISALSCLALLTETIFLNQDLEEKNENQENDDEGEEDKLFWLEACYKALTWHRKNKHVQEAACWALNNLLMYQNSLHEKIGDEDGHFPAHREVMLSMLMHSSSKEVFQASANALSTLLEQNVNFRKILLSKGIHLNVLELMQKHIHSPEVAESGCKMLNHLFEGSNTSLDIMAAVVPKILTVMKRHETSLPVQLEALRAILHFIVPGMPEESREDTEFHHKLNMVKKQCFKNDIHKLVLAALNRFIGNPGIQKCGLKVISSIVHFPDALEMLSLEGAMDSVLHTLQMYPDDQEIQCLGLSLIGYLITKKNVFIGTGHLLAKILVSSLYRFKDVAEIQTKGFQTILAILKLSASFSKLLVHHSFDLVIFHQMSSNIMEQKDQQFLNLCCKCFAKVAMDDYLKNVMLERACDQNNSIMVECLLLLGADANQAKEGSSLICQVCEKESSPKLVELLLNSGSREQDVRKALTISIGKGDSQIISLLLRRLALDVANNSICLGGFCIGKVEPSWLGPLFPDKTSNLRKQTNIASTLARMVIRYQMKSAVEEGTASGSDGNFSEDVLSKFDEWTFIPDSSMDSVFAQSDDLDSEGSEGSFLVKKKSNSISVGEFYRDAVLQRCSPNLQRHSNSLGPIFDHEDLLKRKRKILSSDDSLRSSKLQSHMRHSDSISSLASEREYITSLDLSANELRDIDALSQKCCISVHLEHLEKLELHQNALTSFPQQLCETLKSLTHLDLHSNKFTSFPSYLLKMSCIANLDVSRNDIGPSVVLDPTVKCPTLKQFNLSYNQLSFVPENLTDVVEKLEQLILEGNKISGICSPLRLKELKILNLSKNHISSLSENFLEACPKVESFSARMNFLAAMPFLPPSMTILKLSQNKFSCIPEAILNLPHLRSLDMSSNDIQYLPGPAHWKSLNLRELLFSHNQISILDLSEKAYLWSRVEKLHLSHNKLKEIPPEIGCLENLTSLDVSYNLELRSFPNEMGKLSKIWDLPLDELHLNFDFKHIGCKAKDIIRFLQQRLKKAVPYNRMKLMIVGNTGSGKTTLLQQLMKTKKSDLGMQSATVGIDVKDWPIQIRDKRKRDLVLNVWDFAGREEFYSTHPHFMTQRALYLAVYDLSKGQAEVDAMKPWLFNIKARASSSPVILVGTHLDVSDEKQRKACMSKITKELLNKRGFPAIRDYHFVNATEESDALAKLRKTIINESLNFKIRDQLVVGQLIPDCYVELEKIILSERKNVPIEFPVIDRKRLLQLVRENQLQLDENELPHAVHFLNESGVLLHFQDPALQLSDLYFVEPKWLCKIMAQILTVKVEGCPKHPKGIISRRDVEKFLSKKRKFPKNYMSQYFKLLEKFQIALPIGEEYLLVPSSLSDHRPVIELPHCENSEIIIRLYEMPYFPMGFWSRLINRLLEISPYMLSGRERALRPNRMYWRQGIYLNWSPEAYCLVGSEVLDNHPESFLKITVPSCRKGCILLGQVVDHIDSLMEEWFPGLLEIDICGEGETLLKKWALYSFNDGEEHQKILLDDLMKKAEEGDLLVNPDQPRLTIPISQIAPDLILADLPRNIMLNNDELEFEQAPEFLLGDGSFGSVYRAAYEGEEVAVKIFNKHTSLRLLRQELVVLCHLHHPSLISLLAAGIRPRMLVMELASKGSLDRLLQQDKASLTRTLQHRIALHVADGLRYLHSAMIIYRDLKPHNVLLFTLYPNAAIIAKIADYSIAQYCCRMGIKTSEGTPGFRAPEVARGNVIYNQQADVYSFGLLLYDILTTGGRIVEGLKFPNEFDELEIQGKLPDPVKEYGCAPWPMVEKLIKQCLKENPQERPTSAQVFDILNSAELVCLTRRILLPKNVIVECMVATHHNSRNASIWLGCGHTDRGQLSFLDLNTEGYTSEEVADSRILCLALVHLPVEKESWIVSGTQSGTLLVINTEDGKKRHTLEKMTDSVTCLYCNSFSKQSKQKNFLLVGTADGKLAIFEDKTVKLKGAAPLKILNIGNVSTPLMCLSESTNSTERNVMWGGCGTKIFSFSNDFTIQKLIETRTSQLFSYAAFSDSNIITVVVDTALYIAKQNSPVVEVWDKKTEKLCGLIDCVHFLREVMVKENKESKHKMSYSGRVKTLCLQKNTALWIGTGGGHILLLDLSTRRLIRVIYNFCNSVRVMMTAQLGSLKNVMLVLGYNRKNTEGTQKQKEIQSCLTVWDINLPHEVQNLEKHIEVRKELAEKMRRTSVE
T1 sequence (P48775 whole entry): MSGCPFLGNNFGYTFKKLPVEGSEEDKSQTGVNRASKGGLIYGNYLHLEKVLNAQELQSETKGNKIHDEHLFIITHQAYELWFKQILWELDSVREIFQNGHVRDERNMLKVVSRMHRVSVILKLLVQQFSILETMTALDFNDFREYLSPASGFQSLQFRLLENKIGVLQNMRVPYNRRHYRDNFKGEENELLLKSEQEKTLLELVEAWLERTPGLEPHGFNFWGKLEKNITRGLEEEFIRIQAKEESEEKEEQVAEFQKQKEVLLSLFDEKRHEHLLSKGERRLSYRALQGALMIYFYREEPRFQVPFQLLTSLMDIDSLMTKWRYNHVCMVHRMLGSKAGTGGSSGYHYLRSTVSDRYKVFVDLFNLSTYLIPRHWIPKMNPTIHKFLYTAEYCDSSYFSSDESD

Turning to `C[C@@H]1CN(c2cc(Br)cc3[nH]ncc23)CC[C@]12NC(=O)NC2=O` (single isomer, unassigned) [Compound 1-1], the IC50 is 247 nM on TDO; > 2 µM at CDK5/P25; > 2 µM at CDK2; > 2 µM on LRRK2 (G2019S); > 2 µM at CDK5/P35.
Turning to `O=C1NC(=O)C2(CCN(c3cc(Cl)cc4[nH]ncc34)CC2)N1` [CC-1], the IC50 against TDO was 206 nM; at CDK5/P25 it was 1.2 µM; on CDK2, 1.5 µM; at LRRK2 (G2019S) it was 0.94 µM; on CDK5/P35 it was 1.6 µM.
